According to PubChem BioAssay (NCI):
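Growth conditions: 96-well plates. Treatment: test compound, 48 hours, 5 concentrations. Analysis: linear interpolation between bracketing concentrations; unreached endpoints set to highest concentration. GI50 = concentration required for 50% inhibition of growth. The concentration for full growth arrest is given as TGI.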

test system: UACC-62 melanoma; experiment: inhibition of tumour cell growth, NCI panel, 48 h

Work on COc1cc(C(=O)O[C@H](C(N)=O)[C@]2(C)CO2)c2cccc(C)c2c1 yielded a GI50 of 0.02 µM.

In the case of COc1cc(C(=O)O[C@H](C(N)=O)[C@]2(C)CO2)c2cccc(C)c2c1, the TGI is reported as 0.154 µM.

test system: PC-3 prostate; experiment: inhibition of tumour cell growth, NCI panel, 48 h

First: C=C(C)[C@@H]1CC[C@]2(C)[C@H](CC[C@@H]3[C@@H]([C@@](C)(O)CCC=C(C)C)CC[C@]32C)[C@@]1(C)CCC(=O)O
Second: CNC(C)[C@H]1CCC2C3CC=C4C(=O)[C@@H](NC(=O)C=C(C)C)CC[C@]4(C)C3CC[C@@]21C (stereo partly specified)
The GI50 of the first is 5.9-fold higher: 11.3 µM for the first, 1.9 µM for the second.

Compared with Cn1cc(S(=O)(=O)N2CCC3=Cc4c(cnn4-c4ccc(F)cc4)C[C@]3(C(=O)c3cc(C(F)(F)F)ccn3)C2)cn1, COc1ccc2c(c1)C(C)Cc1c(ncnc1-n1cnc3ccccc31)N2C (stereo unspecified) is 77-fold lower in GI50: 31.4 µM for the first, 0.409 µM for the second.

First: Oc1ccc(N=Nc2nccs2)c(O)c1
Second: O=C1c2ccccc2C(=O)c2c(NCCN=Cc3ccccc3O)cccc21
The GI50 of the first is 3.7-fold higher: 8.08 µM for the first, 2.18 µM for the second.

Compared with COc1ccc(-c2noc(N)c2-c2cc(OC)c3c(c2)OCO3)cc1, C=CCn1c(SCC(=O)Nc2ccc(C(=O)/C=C/c3cc(OC)c(OC)c(OC)c3)cc2)nnc1-c1ccc(OC)cc1 is 5.2-fold lower in GI50: 3.36 µM for the first, 0.642 µM for the second.

Compared with NCCCn1c2c(c3ccccc3c1=O)C(=O)c1ccccc1-2, COc1cc2c3c(n(CCCN(C)CCO)c(=O)c2cc1OC)-c1cc2c(cc1C3=O)OCO2 is 19-fold higher in GI50: 0.451 µM for the first, 8.47 µM for the second.

Going from CC1(C)N=C(N)N=C(N)N1c1cccc(OCCOc2cccc([N+](=O)[O-])c2)c1 to Clc1nc(Cl)c2ncn(Cc3ccccc3Cn3cnc4c(Cl)nc(Cl)nc43)c2n1, the GI50 rises from 0.0906 µM to 2.04 µM (23-fold).

C=C1C(O)C2C(=C(C)C13CC3)C(=O)C(C)(C)C2OC (stereo unspecified) was tested, and the GI50 was over 100 µM.

Compared with C=C(C)[C@@H]1CC[C@]2(C)[C@H](CC[C@@H]3[C@@H]([C@@](C)(O)CCC=C(C)C)CC[C@]32C)[C@@]1(C)CCC(=O)O, CNC(C)[C@H]1CCC2C3CC=C4C(=O)[C@@H](NC(=O)C=C(C)C)CC[C@]4(C)C3CC[C@@]21C (stereo partly specified) is 2.4-fold lower in TGI: 27.2 µM for the first, 11.5 µM for the second.

Going from Cn1cc(S(=O)(=O)N2CCC3=Cc4c(cnn4-c4ccc(F)cc4)C[C@]3(C(=O)c3cc(C(F)(F)F)ccn3)C2)cn1 to COc1ccc2c(c1)C(C)Cc1c(ncnc1-n1cnc3ccccc31)N2C (stereo unspecified), the TGI falls from over 100 µM to 17.5 µM.

First: Cc1ccc2occ/c(=N\Nc3ccccc3)c2c1
Second: O=[N+]([O-])c1ccc(Sc2c3ccccc3nc3ccccc23)cn1
The TGI of the first is higher: over 100 µM for the first, 38.1 µM for the second.

First: CC(=O)NC1CONC1=O (stereo unspecified)
Second: COc1cc(C(=O)O[C@H](C(N)=O)[C@]2(C)CO2)c2cccc(C)c2c1
The TGI of the first is higher: over 100 µM for the first, 2.76 µM for the second.

Oc1ccc(N=Nc2nccs2)c(O)c1 and COc1ccc(/C=C/c2cnccn2)cc1OC cannot be ordered by TGI: 48.8 µM for the first, over 10 µM for the second.

Going from COc1cc(/C=C/C(=O)Oc2ccccc2)ccc1C(=O)O/C=C/c1ccccc1 to O=C1c2ccccc2C(=O)c2c(NCCN=Cc3ccccc3O)cccc21, the TGI falls from over 100 µM to 8.1 µM.

COc1ccc(-c2noc(N)c2-c2cc(OC)c3c(c2)OCO3)cc1 and C=CCn1c(SCC(=O)Nc2ccc(C(=O)/C=C/c3cc(OC)c(OC)c(OC)c3)cc2)nnc1-c1ccc(OC)cc1 cannot be ordered by TGI: over 100 µM for the first, over 100 µM for the second.

First: CC(Cl)CN1c2ccccc2Sc2ccc(Cl)cc21 (stereo unspecified)
Second: NCCCn1c2c(c3ccccc3c1=O)C(=O)c1ccccc1-2
The TGI of the first is higher: over 10 µM for the first, 2.98 µM for the second.

Oc1ccc(/C=C/c2cc(O)cc3c2C(c2cc(O)cc(O)c2)C(c2ccc(O)c(O)c2)O3)cc1 (stereo unspecified) and CC1(C)N=C(N)N=C(N)N1c1cccc(OCCOc2cccc([N+](=O)[O-])c2)c1 cannot be ordered by TGI: over 100 µM for the first, over 38.5 µM for the second.

Compared with COc1cc2c3c(n(CCCN(C)CCO)c(=O)c2cc1OC)-c1cc2c(cc1C3=O)OCO2, Clc1nc(Cl)c2ncn(Cc3ccccc3Cn3cnc4c(Cl)nc(Cl)nc43)c2n1 is lower in TGI: over 62.6 µM for the first, 5.53 µM for the second.

C=C1C(O)C2C(=C(C)C13CC3)C(=O)C(C)(C)C2OC (stereo unspecified) showed a TGI of over 100 µM.

test system: SK-MEL-5 melanoma; experiment: inhibition of tumour cell growth, NCI panel, 48 h

Compared with C=C(C)[C@@H]1CC[C@]2(C)[C@H](CC[C@@H]3[C@@H]([C@@](C)(O)CCC=C(C)C)CC[C@]32C)[C@@]1(C)CCC(=O)O, CNC(C)[C@H]1CCC2C3CC=C4C(=O)[C@@H](NC(=O)C=C(C)C)CC[C@]4(C)C3CC[C@@]21C (stereo partly specified) is 13-fold lower in GI50: 15.2 µM for the first, 1.14 µM for the second.

First: Cn1cc(S(=O)(=O)N2CCC3=Cc4c(cnn4-c4ccc(F)cc4)C[C@]3(C(=O)c3cc(C(F)(F)F)ccn3)C2)cn1
Second: COc1ccc2c(c1)C(C)Cc1c(ncnc1-n1cnc3ccccc31)N2C (stereo unspecified)
The GI50 of the first is 160-fold higher: 57.7 µM for the first, 0.368 µM for the second.

First: Oc1ccc(N=Nc2nccs2)c(O)c1
Second: COc1cc(C(=O)O[C@H](C(N)=O)[C@]2(C)CO2)c2cccc(C)c2c1
The GI50 of the first is higher: 3.44 µM for the first, under 0.0158 µM for the second.

Compared with COc1ccc(-c2noc(N)c2-c2cc(OC)c3c(c2)OCO3)cc1, C=CCn1c(SCC(=O)Nc2ccc(C(=O)/C=C/c3cc(OC)c(OC)c(OC)c3)cc2)nnc1-c1ccc(OC)cc1 is 4-fold lower in GI50: 3.14 µM for the first, 0.79 µM for the second.

Going from NCCCn1c2c(c3ccccc3c1=O)C(=O)c1ccccc1-2 to O=C1c2ccccc2C(=O)c2c(NCCN=Cc3ccccc3O)cccc21, the GI50 rises from 0.105 µM to 1.51 µM (14-fold).

Going from CC1(C)N=C(N)N=C(N)N1c1cccc(OCCOc2cccc([N+](=O)[O-])c2)c1 to Clc1nc(Cl)c2ncn(Cc3ccccc3Cn3cnc4c(Cl)nc(Cl)nc43)c2n1, the GI50 falls from 4.5 µM to 1.81 µM (2.5-fold).

Compared with COc1cc2c3c(n(CCCN(C)CCO)c(=O)c2cc1OC)-c1cc2c(cc1C3=O)OCO2, C=C1C(O)C2C(=C(C)C13CC3)C(=O)C(C)(C)C2OC (stereo unspecified) is 11-fold higher in GI50: 4.77 µM for the first, 50.5 µM for the second.

Compared with C=C(C)[C@@H]1CC[C@]2(C)[C@H](CC[C@@H]3[C@@H]([C@@](C)(O)CCC=C(C)C)CC[C@]32C)[C@@]1(C)CCC(=O)O, CNC(C)[C@H]1CCC2C3CC=C4C(=O)[C@@H](NC(=O)C=C(C)C)CC[C@]4(C)C3CC[C@@]21C (stereo partly specified) is 12-fold lower in TGI: 29 µM for the first, 2.39 µM for the second.

Compared with Cn1cc(S(=O)(=O)N2CCC3=Cc4c(cnn4-c4ccc(F)cc4)C[C@]3(C(=O)c3cc(C(F)(F)F)ccn3)C2)cn1, COc1ccc2c(c1)C(C)Cc1c(ncnc1-n1cnc3ccccc31)N2C (stereo unspecified) is lower in TGI: over 100 µM for the first, 1.89 µM for the second.

Cc1ccc2occ/c(=N\Nc3ccccc3)c2c1 and O=[N+]([O-])c1ccc(Sc2c3ccccc3nc3ccccc23)cn1 cannot be ordered by TGI: over 100 µM for the first, over 100 µM for the second.

First: CC(=O)NC1CONC1=O (stereo unspecified)
Second: COc1cc(C(=O)O[C@H](C(N)=O)[C@]2(C)CO2)c2cccc(C)c2c1
The TGI of the first is higher: over 100 µM for the first, 0.0522 µM for the second.

Oc1ccc(N=Nc2nccs2)c(O)c1 and COc1ccc(/C=C/c2cnccn2)cc1OC cannot be ordered by TGI: 18.4 µM for the first, over 10 µM for the second.

First: COc1cc(/C=C/C(=O)Oc2ccccc2)ccc1C(=O)O/C=C/c1ccccc1
Second: O=C1c2ccccc2C(=O)c2c(NCCN=Cc3ccccc3O)cccc21
The TGI of the first is higher: over 100 µM for the first, 5.2 µM for the second.

First: COc1ccc(-c2noc(N)c2-c2cc(OC)c3c(c2)OCO3)cc1
Second: C=CCn1c(SCC(=O)Nc2ccc(C(=O)/C=C/c3cc(OC)c(OC)c(OC)c3)cc2)nnc1-c1ccc(OC)cc1
The TGI of the first is 9.3-fold higher: 21.2 µM for the first, 2.27 µM for the second.

Compared with CC(Cl)CN1c2ccccc2Sc2ccc(Cl)cc21 (stereo unspecified), NCCCn1c2c(c3ccccc3c1=O)C(=O)c1ccccc1-2 is lower in TGI: over 10 µM for the first, 0.948 µM for the second.

Oc1ccc(/C=C/c2cc(O)cc3c2C(c2cc(O)cc(O)c2)C(c2ccc(O)c(O)c2)O3)cc1 (stereo unspecified) and CC1(C)N=C(N)N=C(N)N1c1cccc(OCCOc2cccc([N+](=O)[O-])c2)c1 are within 1.5-fold of each other in TGI: 34.7 µM for the first, 33.5 µM for the second.

Compared with COc1cc2c3c(n(CCCN(C)CCO)c(=O)c2cc1OC)-c1cc2c(cc1C3=O)OCO2, Clc1nc(Cl)c2ncn(Cc3ccccc3Cn3cnc4c(Cl)nc(Cl)nc43)c2n1 is 8.1-fold lower in TGI: 33.5 µM for the first, 4.13 µM for the second.

C=C1C(O)C2C(=C(C)C13CC3)C(=O)C(C)(C)C2OC (stereo unspecified) was tested, and the TGI was over 100 µM.

test system: NCI-H23 lung; experiment: inhibition of tumour cell growth, NCI panel, 48 h

First: C=C(C)[C@@H]1CC[C@]2(C)[C@H](CC[C@@H]3[C@@H]([C@@](C)(O)CCC=C(C)C)CC[C@]32C)[C@@]1(C)CCC(=O)O
Second: Cn1cc(S(=O)(=O)N2CCC3=Cc4c(cnn4-c4ccc(F)cc4)C[C@]3(C(=O)c3cc(C(F)(F)F)ccn3)C2)cn1
The GI50 of the first is lower: 18.1 µM for the first, over 100 µM for the second.

First: Oc1ccc(N=Nc2nccs2)c(O)c1
Second: COc1ccc(-c2noc(N)c2-c2cc(OC)c3c(c2)OCO3)cc1
The GI50 of the first is 1.7-fold higher: 5.36 µM for the first, 3.17 µM for the second.

COc1ccc2c(c1)C(C)Cc1c(ncnc1-n1cnc3ccccc31)N2C (stereo unspecified) gave a GI50 of 0.44 µM.

Going from C=C(C)[C@@H]1CC[C@]2(C)[C@H](CC[C@@H]3[C@@H]([C@@](C)(O)CCC=C(C)C)CC[C@]32C)[C@@]1(C)CCC(=O)O to COc1cc(/C=C/C(=O)Oc2ccccc2)ccc1C(=O)O/C=C/c1ccccc1, the TGI rises from 35.6 µM to over 100 µM.

First: Cn1cc(S(=O)(=O)N2CCC3=Cc4c(cnn4-c4ccc(F)cc4)C[C@]3(C(=O)c3cc(C(F)(F)F)ccn3)C2)cn1
Second: COc1ccc2c(c1)C(C)Cc1c(ncnc1-n1cnc3ccccc31)N2C (stereo unspecified)
The TGI of the first is higher: over 100 µM for the first, 18.2 µM for the second.

Cc1ccc2occ/c(=N\Nc3ccccc3)c2c1 and CC(Cl)CN1c2ccccc2Sc2ccc(Cl)cc21 (stereo unspecified) cannot be ordered by TGI: over 100 µM for the first, over 10 µM for the second.

Compared with CC(=O)NC1CONC1=O (stereo unspecified), NCCCn1c2c(c3ccccc3c1=O)C(=O)c1ccccc1-2 is lower in TGI: over 100 µM for the first, 0.977 µM for the second.

Compared with Oc1ccc(N=Nc2nccs2)c(O)c1, COc1ccc(-c2noc(N)c2-c2cc(OC)c3c(c2)OCO3)cc1 is higher in TGI: 28.7 µM for the first, over 83.1 µM for the second.
